# Assay results as given in patent publication US20100075370A1, “METHOD FOR DETERMINATION OF CELL VIABILITY BY USING FLOW CYTOMETRY WITH FIXED VOLUME ACQUISITION” (TUMORTEC GMBH, priority 2006, published 2010).
# System: patient samples (pBMC from CLL patients)
# Assay: DiSC assay, chemosensitivity index Ci
# Assay type: cell-based, human
# Description: (2) A more complex standardization is the calculation of an index. In case of the chemosensitivity testing it is not a single value that has to be standardized. The chemosensitivity towards a drug is tested with several concentrations of the drug in parallel in a cell culture assay. […] This method was adopted for the present invention from the analysis of DiSC assays (Staib et al., British Journal of Haematology, 2005, 128, 783-791). The Chemosensitivity Index Ci was designed as a prognostic index for ex vivo chemosensitivity assays. Assay results were expressed as percent tumor cell survival (% TCS). The dose-response curve as a function of the dose-response relationship may be mathematically described by a […] regression model (FIG. 4). The dose-response curve was defined as CS=c1*e^conc*c2 % with cell survival (CS), drug concentration (conc) and the constants c1 and c2. c1 represented the y-axis distance and c2 the slope of the curve. The area under the curve (AUC) as an exact measure for the total dose response relation was defined as AUC=−e^c1/c2, on condition that c2 is less than 0, otherwise AUC is infinite. The chemosensitivity index, Ci, was set up as Ci=e^−AUC*c with a domain between 0 and 1. The drug-specific constant c was used for adjusting the Ci-value of 0.5 as the cut-off point between resistance and sensitivity. The constant c was defined as
# with AUCcut-off as the smallest AUC value among all clinical non-responding patients of the training data set. Obviously, all cytotoxic agents given for treatment were ineffective in these patients. The cut-off Ci value must be adjusted to 0.5 for prognosis of the effect of the drug on a patient in vivo when the drug is tested on said patient's cells in vitro using the method of the present invention. Ci values of 0-0.5 indicated resistance and values above 0.5 predicted sensitivity against the drug tested.
# The chemosensitivity index Ci based on the DiSC assay as described in Staib, P. et al., Br. J. Haematol., 128(6):783-91 (2005) is known to have a very high accuracy of prediction (98%) for the clinical outcome of a particular chemotherapy (Staib, P. et al., Br. J. Haematol., 128(6):783-91 (2005)). In order to evaluate the accuracy of the cytotoxicity assay as described in example 1 (“new method”), the Ci determination was performed for assay results of patient samples analyzed with the traditional DiSC assay and—in parallel—with the new assay method described in example 1. In total, 22 patient samples were analyzed. Fludara® was used in both assays. The cytotoxicity assay of example 1 was performed as described therein, and the DiSC assay was performed as described in Staib, P. et al., Br. J. Haematol., 128(6):783-91 (2005).
structure (smiles),measurement,setting,value
"Nc1nc(F)nc2c1ncn2[C@@H]1O[C@H](COP(=O)(O)O)[C@@H](O)[C@@H]1O [Fludarabine phosphate, 2-Fluoro-9-(5-O-phosphono-β-D-arabinofuranosyl)-9H-purin-6-amine]",Ci (DiSC-Assay),patient #1,0.99
same,prediction (DiSC-Assay),patient #1,sensitive (values above 0.5 predicted sensitivity against the drug tested)
same,Ci (DiSC-Assay),patient #2,0.98
same,prediction (DiSC-Assay),patient #2,sensitive (values above 0.5 predicted sensitivity against the drug tested)
same,Ci (DiSC-Assay),patient #3,0.97
same,prediction (DiSC-Assay),patient #3,sensitive (values above 0.5 predicted sensitivity against the drug tested)
same,Ci (DiSC-Assay),patient #4,0.95
same,prediction (DiSC-Assay),patient #4,sensitive (values above 0.5 predicted sensitivity against the drug tested)
same,Ci (DiSC-Assay),patient #5,0.90
same,prediction (DiSC-Assay),patient #5,sensitive (values above 0.5 predicted sensitivity against the drug tested)
same,Ci (DiSC-Assay),patient #6,0.89
same,prediction (DiSC-Assay),patient #6,sensitive (values above 0.5 predicted sensitivity against the drug tested)
same,Ci (DiSC-Assay),patient #7,0.85
same,prediction (DiSC-Assay),patient #7,sensitive (values above 0.5 predicted sensitivity against the drug tested)
same,Ci (DiSC-Assay),patient #8,0.81
same,prediction (DiSC-Assay),patient #8,sensitive (values above 0.5 predicted sensitivity against the drug tested)
same,Ci (DiSC-Assay),patient #9,0.75
same,prediction (DiSC-Assay),patient #9,sensitive (values above 0.5 predicted sensitivity against the drug tested)
same,Ci (DiSC-Assay),patient #10,0.70
same,prediction (DiSC-Assay),patient #10,sensitive (values above 0.5 predicted sensitivity against the drug tested)
same,Ci (DiSC-Assay),patient #11,0.68
same,prediction (DiSC-Assay),patient #11,sensitive (values above 0.5 predicted sensitivity against the drug tested)
same,Ci (DiSC-Assay),patient #12,0.61
same,prediction (DiSC-Assay),patient #12,sensitive (values above 0.5 predicted sensitivity against the drug tested)
same,Ci (DiSC-Assay),patient #13,0.60
same,prediction (DiSC-Assay),patient #13,sensitive (values above 0.5 predicted sensitivity against the drug tested)
same,Ci (DiSC-Assay),patient #14,0.57
same,prediction (DiSC-Assay),patient #14,sensitive (values above 0.5 predicted sensitivity against the drug tested)
same,Ci (DiSC-Assay),patient #15,0.55
same,prediction (DiSC-Assay),patient #15,sensitive (values above 0.5 predicted sensitivity against the drug tested)
same,Ci (DiSC-Assay),patient #16,0.50
same,prediction (DiSC-Assay),patient #16,resistant (Ci values of 0-0.5 indicated resistance)
same,Ci (DiSC-Assay),patient #17,0.47
same,prediction (DiSC-Assay),patient #17,resistant (Ci values of 0-0.5 indicated resistance)
same,Ci (DiSC-Assay),patient #18,0.46
same,prediction (DiSC-Assay),patient #18,resistant (Ci values of 0-0.5 indicated resistance)
same,Ci (DiSC-Assay),patient #19,0.43
same,prediction (DiSC-Assay),patient #19,resistant (Ci values of 0-0.5 indicated resistance)
same,Ci (DiSC-Assay),patient #20,0.39
same,prediction (DiSC-Assay),patient #20,resistant (Ci values of 0-0.5 indicated resistance)
same,Ci (DiSC-Assay),patient #21,0.34
same,prediction (DiSC-Assay),patient #21,resistant (Ci values of 0-0.5 indicated resistance)
same,Ci (DiSC-Assay),patient #22,0.32
same,prediction (DiSC-Assay),patient #22,resistant (Ci values of 0-0.5 indicated resistance)
